# Assay results from ChEMBL document CHEMBL1150678, “Bioactive sterols from the starfish Certonardoa semiregularis” (2003).
# How the values were obtained:
# Enterococcus faecium = assay: Antimicrobial activity against Streptococcus faecium MD8b isolate after 18 hrs; format: functional
# XF498 = assay: Cytotoxicity against human XF498 cells; format: functional; settings: read-out: ED50 (the source's name)
# Enterobacter cloacae [1] = assay: Antimicrobial activity against Enterobacter cloacae 1321E after 18 hrs; format: functional
# SK-MEL-2 = assay: Cytotoxicity against human SK-MEL-2 cells; format: functional; settings: read-out: ED50 (the source's name)
# Staphylococcus aureus [2] = assay: Antimicrobial activity against Staphylococcus aureus 503 isolate after 18 hrs; format: functional
# Streptococcus pyogenes [3] = assay: Antimicrobial activity against Streptococcus pyogenes 308A isolate after 18 hrs; format: functional
# Escherichia coli [4] = assay: Antimicrobial activity against Escherichia coli DC2 isolate after 18 hrs; format: functional
# SK-OV-3 = assay: Cytotoxicity against human SKOV3 cells; format: functional; settings: read-out: ED50 (the source's name)
# HCT-15 = assay: Cytotoxicity against human HCT15 cells; format: functional; settings: read-out: ED50 (the source's name)
# Pseudomonas aeruginosa [5] = assay: Antimicrobial activity against Pseudomonas aeruginosa 9027 isolate after 18 hrs; format: functional
# Klebsiella oxytoca = assay: Antimicrobial activity against Klebsiella oxytoca 1082E after 18 hrs; format: functional
# Pseudomonas aeruginosa [6] = assay: Antimicrobial activity against Pseudomonas aeruginosa 1592E isolate after 18 hrs; format: functional
# Pseudomonas aeruginosa [7] = assay: Antimicrobial activity against Pseudomonas aeruginosa 1771 isolate after 18 hrs; format: functional
# Pseudomonas aeruginosa [8] = assay: Antimicrobial activity against Pseudomonas aeruginosa 1771M isolate after 18 hrs; format: functional
# Klebsiella aerogenes = assay: Antimicrobial activity against Klebsiella aerogenes 1522E after 18 hrs; format: functional
# Escherichia coli [9] = assay: Antimicrobial activity against Escherichia coli DC0 isolate after 18 hrs; format: functional
# Escherichia coli [10] = assay: Antimicrobial activity against Escherichia coli TEM isolate after 18 hrs; format: functional
# Salmonella typhimurium = assay: Antimicrobial activity against Salmonella Typhimurium after 18 hrs; format: functional, Salmonella enterica subsp. enterica serovar Typhimurium; settings: Salmonella enterica
# Staphylococcus aureus [11] = assay: Antimicrobial activity against Staphylococcus aureus 285 isolate after 18 hrs; format: functional
# Escherichia coli [12] = assay: Antimicrobial activity against Escherichia coli 078 isolate after 18 hrs; format: functional
# Enterobacter cloacae [13] = assay: Antimicrobial activity against Enterobacter cloacae P99 after 18 hrs; format: functional
# Staphylococcus aureus [14] = assay: Antimicrobial activity against Staphylococcus aureus SG511 isolate after 18 hrs; format: functional
# Streptococcus pyogenes [15] = assay: Antimicrobial activity against Streptococcus pyogenes 77A isolate after 18 hrs; format: functional
# A549 = assay: Cytotoxicity against human A549 cells; format: functional; settings: read-out: ED50 (the source's name)
# Escherichia coli [16] = assay: Antimicrobial activity against Escherichia coli 1507E isolate after 18 hrs; format: functional
SMILES,MIC (Enterococcus faecium) [µg/mL],EC50 (XF498) [µg/mL],MIC (Enterobacter cloacae [1]) [µg/mL],EC50 (SK-MEL-2) [µg/mL],MIC (Staphylococcus aureus [2]) [µg/mL],MIC (Streptococcus pyogenes [3]) [µg/mL],MIC (Escherichia coli [4]) [µg/mL],EC50 (SK-OV-3) [µg/mL],EC50 (HCT-15) [µg/mL],MIC (Pseudomonas aeruginosa [5]) [µg/mL],MIC (Klebsiella oxytoca) [µg/mL],MIC (Pseudomonas aeruginosa [6]) [µg/mL],MIC (Pseudomonas aeruginosa [7]) [µg/mL],MIC (Pseudomonas aeruginosa [8]) [µg/mL],MIC (Klebsiella aerogenes) [µg/mL],MIC (Escherichia coli [9]) [µg/mL],MIC (Escherichia coli [10]) [µg/mL],MIC (Salmonella typhimurium) [µg/mL],MIC (Streptococcus pyogenes [15]) [µg/mL],EC50 (A549) [µg/mL],further results
CC(C)[C@@H](O)CC[C@@H](C)[C@H]1C[C@@H](O)[C@@H]2[C@]1(C)CC[C@@H]1[C@@]3(C)CC[C@H](O)C[C@@H]3[C@@H](O)C[C@]12O,> 25,11.4,> 25,12.4,> 25,12.5,> 25,15.6,19.4,> 25,> 25,> 25,25,25,> 25,> 25,> 25,> 25,> 25,11.3,MIC (Staphylococcus aureus [11]): > 25 µg/mL; MIC (Escherichia coli [12]): > 25 µg/mL; MIC (Enterobacter cloacae [13]): > 25 µg/mL; MIC (Staphylococcus aureus [14]): > 25 µg/mL; MIC (Escherichia coli [16]): > 25 µg/mL
C=C(CC[C@@H](C)[C@H]1C[C@@H](O)[C@@H]2[C@]1(C)CC[C@@H]1[C@@]3(C)CC[C@H](O)[C@H](O)[C@@H]3[C@@H](O)C[C@]12O)[C@H](C)CO [CERTONARDOSTEROL A],> 25,4.4,> 25,4.1,> 25,25,> 25,7.3,4.5,> 25,> 25,> 25,25,25,> 25,> 25,> 25,> 25,> 25,3.1,MIC (Staphylococcus aureus [11]): > 25 µg/mL; MIC (Escherichia coli [12]): > 25 µg/mL; MIC (Enterobacter cloacae [13]): > 25 µg/mL; MIC (Staphylococcus aureus [14]): > 25 µg/mL; MIC (Escherichia coli [16]): > 25 µg/mL
C=C(CC[C@@H](C)[C@H]1C[C@@H](O)[C@H]2[C@@H]3C[C@H](O)[C@H]4[C@@H](O)[C@@H](O)CC[C@]4(C)[C@H]3CC[C@@]21C)[C@H](C)CO [CERTONARDOSTEROL B],> 25,4.7,> 25,4.9,> 25,25,> 25,6.9,6.4,> 25,> 25,> 25,25,25,> 25,> 25,> 25,> 25,> 25,3.6,MIC (Staphylococcus aureus [11]): > 25 µg/mL; MIC (Escherichia coli [12]): > 25 µg/mL; MIC (Enterobacter cloacae [13]): > 25 µg/mL; MIC (Staphylococcus aureus [14]): > 25 µg/mL; MIC (Escherichia coli [16]): > 25 µg/mL
C=C(CC[C@@H](C)[C@H]1C[C@@H](O)[C@@H]2[C@]1(C)CC[C@@H]1[C@@]3(C)CC[C@H](O)C[C@@H]3[C@@H](O)C[C@]12O)[C@H](C)CO [CERTONARDOSTEROL C],> 25,13.3,> 25,15.1,> 25,25,> 25,20.2,23.9,> 25,> 25,> 25,25,25,> 25,> 25,> 25,> 25,> 25,14.1,MIC (Staphylococcus aureus [11]): > 25 µg/mL; MIC (Escherichia coli [12]): > 25 µg/mL; MIC (Enterobacter cloacae [13]): > 25 µg/mL; MIC (Staphylococcus aureus [14]): > 25 µg/mL; MIC (Escherichia coli [16]): > 25 µg/mL
C=C(CC[C@@H](C)[C@H]1C[C@@H](O)[C@H]2[C@@H]3C[C@H](O)[C@H]4C[C@@H](O)CC[C@]4(C)[C@H]3CC[C@@]21C)[C@H](C)CO [CERTONARDOSTEROL D],> 25,4.8,> 25,5.5,> 25,25,> 25,8.5,9.6,> 25,> 25,> 25,25,25,> 25,> 25,> 25,> 25,> 25,5.3,MIC (Staphylococcus aureus [11]): > 25 µg/mL; MIC (Escherichia coli [12]): > 25 µg/mL; MIC (Enterobacter cloacae [13]): > 25 µg/mL; MIC (Staphylococcus aureus [14]): > 25 µg/mL; MIC (Escherichia coli [16]): > 25 µg/mL
C=C(CC[C@@H](C)[C@H]1C[C@H](O)[C@H]2[C@@H]3C[C@@H](O)[C@H]4C[C@@H](O)CC[C@]4(C)[C@H]3CC[C@@]21C)[C@H](C)CO [CERTONARDOSTEROL E],> 25,4.1,> 25,4.1,> 25,25,> 25,4.9,4.2,> 25,> 25,> 25,> 25,> 25,> 25,> 25,> 25,> 25,> 25,3.9,MIC (Staphylococcus aureus [11]): > 25 µg/mL; MIC (Escherichia coli [12]): > 25 µg/mL; MIC (Enterobacter cloacae [13]): > 25 µg/mL; MIC (Staphylococcus aureus [14]): > 25 µg/mL; MIC (Escherichia coli [16]): > 25 µg/mL
CC(C)[C@@H](O)CC[C@@H](C)[C@H]1C[C@@H](O)[C@H]2[C@@H]3C[C@H](O)[C@H]4C[C@@H](O)CC[C@]4(C)[C@H]3CC[C@@]21C [CERTONARDOSTEROL F],> 25,4.3,> 25,3.8,> 25,25,> 25,4.4,5.5,> 25,> 25,25,25,> 25,> 25,> 25,> 25,> 25,25,3.8,MIC (Staphylococcus aureus [11]): > 25 µg/mL; MIC (Escherichia coli [12]): > 25 µg/mL; MIC (Enterobacter cloacae [13]): > 25 µg/mL; MIC (Staphylococcus aureus [14]): > 25 µg/mL; MIC (Escherichia coli [16]): > 25 µg/mL
CC(C)[C@@H](O)/C=C/[C@@H](C)[C@H]1C[C@@H](O)[C@H]2[C@@H]3C[C@H](O)[C@H]4C[C@@H](O)CC[C@]4(C)[C@H]3CC[C@@]21C [CERTONARDOSTEROL G],> 25,3.7,> 25,3.4,> 25,12.5,> 25,3.6,4,> 25,> 25,> 25,12.5,25,> 25,> 25,> 25,> 25,> 25,3.6,MIC (Staphylococcus aureus [11]): > 25 µg/mL; MIC (Escherichia coli [12]): > 25 µg/mL; MIC (Enterobacter cloacae [13]): > 25 µg/mL; MIC (Staphylococcus aureus [14]): > 25 µg/mL; MIC (Escherichia coli [16]): > 25 µg/mL
CC(/C=C/[C@@H](C)[C@H]1C[C@@H](O)[C@H]2[C@@H]3C[C@H](O)[C@H]4C[C@@H](O)CC[C@]4(C)[C@H]3CC[C@@]21C)CO (stereo not given in full) [CERTONARDOSTEROL H],> 25,8.6,> 25,6.4,> 25,25,> 25,9.4,10.6,> 25,> 25,> 25,25,25,> 25,> 25,> 25,> 25,> 25,7.1,MIC (Staphylococcus aureus [11]): > 25 µg/mL; MIC (Escherichia coli [12]): > 25 µg/mL; MIC (Enterobacter cloacae [13]): > 25 µg/mL; MIC (Staphylococcus aureus [14]): > 25 µg/mL; MIC (Escherichia coli [16]): > 25 µg/mL
CC(/C=C/[C@@H](C)[C@H]1C[C@@H](O)[C@H]2[C@@H]3C[C@H](O)[C@H]4C(O)[C@@H](O)CC[C@]4(C)[C@H]3CC[C@@]21C)CCO (stereo not given in full) [CERTONARDOSTEROL L],,4.5,,4.3,,,,6,4.2,,,,,,,,,,,4.3,
C[C@H](CO)[C@H](C)CC[C@@H](C)[C@H]1C[C@@H](O)[C@@H]2[C@]1(C)CC[C@@H]1[C@@]3(C)CC[C@H](O)[C@H](O)[C@@H]3[C@@H](O)C[C@]12O [CERTONARDOSTEROL M],,> 30,,> 30,,,,> 30,> 30,,,,,,,,,,,30,
COc1cccc2c1C(=O)c1c(O)c3c(c(O)c1C2=O)C[C@@](O)(C(=O)CO)C[C@@H]3O[C@H]1C[C@H](N)[C@H](O)[C@H](C)O1 [DOXORUBICIN],,0.06,,0.02,,,,0.17,0.03,,,,,,,,,,,0.02,
C[C@@H](O)[C@H]1C(=O)N2C(C(=O)O)=C(S[C@@H]3CN[C@H](C(=O)N(C)C)C3)[C@H](C)[C@H]12 [MEROPENEM],,,,,,0.01,,,,,,0.2,0.39,0.1,,,,,0.004,,
